Source: US20050064383A1, “Methods and apparatus for producing gender enriched sperm” (priority 2000, published 2005)

Tests used:
bull sperm [1] = test: Overnight low temperature staining of bull sperm with Hoechst 33342, separation into X- and Y-sperm by flow cytometry; assay type: cell-based; conditions: citrate buffer pH 6.9
Protocol: (§1) Bull sperm in citrate buffer at pH 6.9-7.0 is sent from collection facility to sorter facility by same-day delivery at 18° C. Upon receipt the sperm is divided into three portions and stored and stained overnight with Hoechst 33342 dye at 18° C., 20° C., or 22° C. (all in citrate buffer at pH 6.9).

[2] = Buffer solubility by HPLC; conditions: maximum measurable 90 micromolar
Protocol: One microliter (μL) of the stock solution was then added to 110 μL of aqueous buffer solution placed in an HPLC (high performance liquid chromatography) vial and mixed by inverting a number of times. The samples were allowed to stand for 30 minutes and then centrifuged for 30 minutes. The centrifugation is required to deposit suspended material that could interfere with the analysis to the side of the vial. The solutions were then analyzed by HPLC by sampling the solution without touching the vial bottom or sides. Shown below are the measured quantities remaining in solution in the various buffers.

bull sperm [3] = test: Sperm motility/viability after overnight incubation with HO dye; assay type: cell-based; conditions: overnight incubation at 18, 20 or 22° C., 0 hours
Protocol: as §1

bull sperm [4] = test: Staining of bull sperm with Hoechst 33342 in TEST buffer, split index on Coulter Epics flow cytometer; assay type: cell-based
Protocol: Bull semen was collected from a sexually mature bull using an artificial vagina and the sample was diluted with citrate buffer (pH 7.0) at 1 part semen: 3 parts buffer. The sample was transferred to the flow cytometry laboratory at 18° C. The concentration of the sample is determined using a hemocytometer and the cells were diluted with an appropriate amount of TEST buffer (pH 7.35) to obtain 100 million sperm per mL. Ten microliters of a stock concentration (5 mg/ml in dH2O) of Hoechst 33342 was added to the sample of sperm and the cells were incubated at 25° C. for up to 4 hours. A second population of cells was handled in like manner but was incubated at 35° C. for 1 hour to serve as a positive control. A third population of cells was handled in like manner but the buffer pH is 7.2 instead of pH 7.35 to determine if buffer pH influences uptake of Hoechst 33342. At one-hour intervals for up to 4 hours, 200 μL micro aliquots were removed from the samples and evaluated using a Coulter Epics flow cytometer. The split index information was collected for each sample per treatment group. [table]

bull sperm [5] = test: Staining of bull sperm with Hoechst dye at 24° C. in citrate or HEPES buffer, separation by flow cytometry; assay type: cell-based
Protocol: Bull sperm are collected at a collection facility, extended in citrate buffer pH 6.9 and sent at 18° C. by overnight express mail to a sorting facility. The sample is divided into two portions, centrifuged to separate sperm from supernatant, and each portion resuspended respectively in citrate buffer and HEPES buffer, both at pH 7.4. 0.1% BSA is present in the HEPES buffer.

## CCOc1ccc(-c2nc3ccc(-c4nc5ccc(N6CCN(C)CC6)cc5[nH]4)cc3[nH]2)cc1 [Hoechst 33342]
Bull sperm [1]; stained 18° C. o/n, 0 hr incubation @ RT
  separation of Y- and X-bearing sperm by flow cytometry: no separation
Bull sperm [1]; stained 18° C. o/n, 1.5 hr incubation @ RT
  separation of Y- and X-bearing sperm by flow cytometry: no separation
Bull sperm [1]; stained 18° C. o/n, 5.0 hr incubation @ RT
  separation of Y- and X-bearing sperm by flow cytometry: no separation
Bull sperm [1]; stained 20° C. o/n, 0 hr incubation @ RT
  separation of Y- and X-bearing sperm by flow cytometry: no separation
Bull sperm [1]; stained 20° C. o/n, 1.5 hr incubation @ RT
  separation of Y- and X-bearing sperm by flow cytometry: no separation
Bull sperm [1]; stained 20° C. o/n, 5.0 hr incubation @ RT
  separation of Y- and X-bearing sperm by flow cytometry: no separation
Bull sperm [1]; stained 22° C. o/n, 0 hr incubation @ RT
  separation of Y- and X-bearing sperm by flow cytometry: no separation
[2]; HEPES Buffer pH 6.85
  quantity remaining in solution (solubility): 79 µM
[2]; HEPES Buffer pH 7.02
  quantity remaining in solution (solubility): 73 µM
[2]; HEPES Buffer pH 7.23
  quantity remaining in solution (solubility): 27 µM
[2]; HEPES Buffer pH 7.36
  quantity remaining in solution (solubility): 23 µM
[2]; HEPES Buffer pH 7.52
  quantity remaining in solution (solubility): 36 µM
[2]; TES Buffer pH 6.85
  quantity remaining in solution (solubility): 79 µM
[2]; TES Buffer pH 6.98
  quantity remaining in solution (solubility): 80 µM
[2]; TES Buffer pH 7.19
  quantity remaining in solution (solubility): 78 µM
[2]; TES Buffer pH 7.34
  quantity remaining in solution (solubility): 75 µM
[2]; TES Buffer pH 7.54
  quantity remaining in solution (solubility): 57 µM
[2]; Tris Buffer pH 6.76
  quantity remaining in solution (solubility): 34 µM
[2]; Tris Buffer pH 6.95
  quantity remaining in solution (solubility): 42 µM
[2]; Tris Buffer pH 7.15
  quantity remaining in solution (solubility): 49 µM
[2]; Tris Buffer pH 7.36
  quantity remaining in solution (solubility): 22 µM
[2]; Tris Buffer pH 7.53
  quantity remaining in solution (solubility): 15 µM
Bull sperm [3]
  effect of prolonged exposure to dye medium on sperm viability (motility): does not compromise sperm viability
Bull sperm [4]; 25° C. in TEST pH 7.2
  1 h Split index: 0%
  2 h split index: 0%
  3 h split index: 0%
  4 h split index: 0%
Bull sperm [4]; 25° C. in TEST pH 7.35
  1 h Split index: 0%
  2 h split index: 0%
  3 h split index: 10%
  4 h split index: 30%
Bull sperm [4]; 35° C. control (positive control), 1 hour
  1 h Split index: 30%
Bull sperm [5]; Sperm in HEPES buffer, pH 7.4, 0.1% BSA
  Sort results after 2.5 h incubation at room temperature (24° C.): Sperm were separated into X and Y
Bull sperm [5]; Sperm in NaCitrate buffer, pH 7.4
  Sort results after 2.5 h incubation at room temperature (24° C.): No separation into X and Y
